In article PMC6731595, “The anti-parasitic agent suramin and several of its analogues are inhibitors of the DNA binding protein Mcm10” (Open Biology, 2019):
Entries after “also recorded” stand apart in the source; their conditions may differ. Structures can show the parent of a compound that is named as a salt. Where two headings read alike, the source gives them in different places.

Tests used:
[1] = molecular target: T1, human RPA70AB (A and B DNA binding domains of RPA70) (Homo sapiens, UniProt P27694); experiment: Fluorescence polarization competition assay, displacement of 5′-6FAM ssDNA probe from RPA70AB; settings: for selectivity for hMcm10 over RPA70AB: FP; for Ki: predominant low-affinity (or only) component, mean ± s.e.m., n ≥ 3, read-out: fluorescence polarization hRPA70AB Ki2; for selectivity RPA/ hMcm10: ratio of hRPA70AB Ki2 to hMcm10-ID Ki (FP)
T1 construct: recombinant human RPA70AB (181-422) in a pSV281 vector; 6xHis (TEV site) (N, cleaved yes); made in house; host or cells: Escherichia coli BL21(DE3)
Protocol: A fluorescence polarization (FP) HTS assay was established to detect inhibitors of the binding of the 5′-6FAM 10-mer oligo probe to Mcm10. Test compounds dissolved in DMSO were added to 384-well plates (Corning 4514) using an Echo 550 acoustic dispenser (final DMSO 0.1%) to achieve a final single point screening concentration of 10 µM. Then 10 µl of 2× Xenopus internal domain Mcm10 (xMcm10-ID, final concentration 2 µM) in binding buffer (20 mM Tris HCl, 100 mM NaCl, 5% glycerol, and 0.01% triton, pH 7.5) was added using the Combi nL Multidrop dispenser. Finally, 10 µl of 2× 5′-6FAM DNA (final 12.5 nM) in binding buffer was added using the Multidrop. DMSO (0.1%, high signal) and probe only (low signal) controls were included on every plate. Plates were mixed for 2 min, incubated for 60 min at RT in the dark, and read on a CLARIOstar multimode plate reader (excitation: 482-16, emission: 530-40, dichroic filter: LP504).
The LOPAC pilot screen identified the sulfhydryl reagent 4-chloromercuribenzoic acid as an inhibitor in the fluorescence polarization (FP) assay. As there was no known Mcm10 inhibitor, 4-chloromercuribenzoic acid (30 μM) was used as a positive control on initial screening plates. Following the discovery of suramin as a Mcm10 inhibitor, suramin (7 μM) was used as a positive control on subsequent screening plates. To confirm activity, screening hits were tested in dose response experiments (8 concentrations in duplicate) using xMcm10-ID. Similar dose response experiments were conducted with suramin and its analogs to confirm activity for hMcm10-ID (1 μM) and xMcm10-FL (2 μM) and to determine selectivity relative to RPA70AB (0.4 μM). Saturation experiments for each protein were conducted using increasing concentrations of protein with a fixed probe concentration (12.5 nM). FP was measured in mP units, and ∆mP values for each well were calculated as the difference between the measured mP and the average of the “probe only” controls. […] The parallel and perpendicular mP values were also used to calculate total fluorescence intensity (TFI) determined by the sum of parallel mP + (2 x perpendicular mP). TFI was used to detect fluorescence interference by compounds [1]. […] IC50 values were calculated using the four parameter logistic equation in Prism 6.0 (GraphPad). Ki values were obtained using an online Ki calculator according to the equations of Nikolovska-Coleska (http://sw16.im.med.umich.edu/soft-ware/calc_ki/). KD values were calculated using the one site or two site binding equations in Prism 6.0 (GraphPad).

hMcm10-ID = molecular target: T2, hMcm10-ID (Homo sapiens, UniProt Q7L590); experiment: Surface plasmon resonance binding kinetics on immobilized hMcm10-ID (Biacore S200); settings: for surface plasmon resonance hMcm10-ID kd / kon: 25°C; for kon: read-out: surface plasmon resonance hMcm10-ID ka; for SPR binding kinetics (description of sensorgrams): immobilized hMcm10-ID
T2 construct: hMcm10-ID (residues 237 to 436) were expressed in E. coli strain BL21(DE3); 6xHis (HRV 3C site) (N, cleaved yes); made in house; host or cells: E. coli BL21(DE3)
T2 sequence (Q7L590 237-436): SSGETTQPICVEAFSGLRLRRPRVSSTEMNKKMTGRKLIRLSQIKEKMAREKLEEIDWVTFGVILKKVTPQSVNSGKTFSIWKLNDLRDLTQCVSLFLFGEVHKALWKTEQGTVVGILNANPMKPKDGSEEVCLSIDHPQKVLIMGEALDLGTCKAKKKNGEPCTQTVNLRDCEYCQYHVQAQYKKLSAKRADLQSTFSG
Protocol: SPR experiments were performed using a Biacore S200 (GE Healthcare) equipped with a research-grade CM5 sensor chip. hMcm10-ID, at a concentration of 15 µg ml^−1 in 10 mM sodium acetate, pH 4.5, […], using an amine coupling kit (GE Healthcare) to either flow cell 2 or 4 following manufacturer directions. The reference flow cell (either flow cell 1 or 3) was left untreated. All compounds were dissolved in running buffer (10 mM PBS, 150 mM NaCl, 0.005% P20, pH 7.4) prior to injection over the chip surface at a flow rate of 30 µl min^−1 and at a temperature of 25°C. Zero concentration samples were injected for double referencing. Data were collected at a rate of 40 Hz and were fitted to a simple 1 : 1 interaction model (unless otherwise noted) using the global data analysis within the Biacore S200 evaluation software.

hTERT RPE-1 cells = experiment: CellTiter-Glo cell viability assay, hTERT RPE-1; format: cell-based; settings: Homo sapiens, hTERT-RPE1, 96 h; 4 days, intracellular ATP; mean ± s.e.m., n = 3
Protocol: HCT116 cells were grown in McCoy's 5A medium (Corning 10-050-CV) supplemented with 10% FBS (Sigma F4135), 1% Pen Strep (Gibco 15140) and 1% L-Glutamine (Gibco 205030). hTERT RPE-1 cells were grown in DMEM/F12 medium (Gibco 11320) supplemented with 10% FBS (Sigma F4135) and 1% Pen Strep (Gibco 15140). Cells were cultured at 37°C and 5% CO2. Cells were plated at 250 cells (hTERT RPE-1) or 500 cells (HCT116) per well in white-walled 96-well plates (Costar 3610) and allowed to recover for 24 h. Stock solutions of each inhibitor were prepared in sterile 1× PBS (Gibco 14190), and further diluted in the appropriate growth medium for each cell type. Cells were allowed to grow for 4 days in inhibitor containing medium and cell viability was measured with the CellTiter-Glo Luminescent Cell Viability Assay (Promega G7572) following the manufacturer's instructions. Viability of each drug treatment condition was normalized to the untreated control for each cell line and fitted to the sigmoidal dose–response variable slope four parameter equation in GraphPad Prism 6.0.

[2] = test system: DNA replication of sperm chromatin in Xenopus egg extracts; experiment: In vitro DNA replication assay in Xenopus S-phase egg extracts ([α-32P]dGTP incorporation); format: biochemical; settings: 10, 50, 150 and 300 µM
Protocol: Xenopus egg extracts were prepared according to the method of Murray. Replication of sperm chromatin in S-phase egg extracts was monitored as previously described. Compounds identified by HTS were added to replication reactions immediately prior to addition of [α-^32P]dGTP (Perkin Elmer BLU514H250UC).
To determine whether the four remaining confirmed HTS hits affected DNA replication, in vitro replication assays were performed using Xenopus S-phase egg extracts incubated with sperm chromatin [25, 34]. DNA replication was measured in the presence of bronopol, fumarprotocetraric acid, iriginol and suramin or DMSO by the incorporation of [α-^32P]dGTP. […] For this reason, further studies focused on suramin alone.
Figure 1. Suramin inhibits DNA replication in an in vitro Xenopus replication assay. HTS hits were evaluated for inhibition of [α-^32P]dGTP incorporation into DNA using a cell-free extract prepared from Xenopus eggs at increasing concentrations (10, 50, 150 and 300 µM indicated by black triangle from right to left). No chemical (–) and DMSO were used as negative controls for replication inhibition (far left and far right lanes).

[3] = calculated from association and dissociation rate constants, 1:1 model, 6000–8000 RU, read-out: surface plasmon resonance hMcm10-ID kinetic KD

T1 sequence (P27694 181-422): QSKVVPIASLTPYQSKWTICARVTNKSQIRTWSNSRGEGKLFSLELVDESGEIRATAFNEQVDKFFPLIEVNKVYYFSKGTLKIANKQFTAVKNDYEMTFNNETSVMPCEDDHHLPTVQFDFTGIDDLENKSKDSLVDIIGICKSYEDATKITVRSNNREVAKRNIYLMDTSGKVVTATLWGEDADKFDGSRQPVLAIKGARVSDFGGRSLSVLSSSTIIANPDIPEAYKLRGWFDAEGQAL

Row | SMILES | selectivity for hMcm10 over RPA70AB [1] | Ki [1] | selectivity RPA/ hMcm10 [1] | surface plasmon resonance hMcm10-ID kd (hMcm10-ID; 1:1 model, 6000–8000 RU) | kon (hMcm10-ID; 1:1 model, 6000–8000 RU) | Kd (hMcm10-ID; [3]) | SPR binding kinetics (description of sensorgrams) (hMcm10-ID) | IC50 (hTERT RPE-1 cells) | Kd (hMcm10-ID; 3000 RU of hMcm10-ID immobilized, read-out: SPR kinetic KD at lower surface density) | DNA replication, [α-32P]dGTP incorporation (result in words) [2]
1 | Cc1nc(/N=N/c2cc(S(=O)(=O)O)ccc2S(=O)(=O)O)c(COP(=O)(O)O)c(C=O)c1O [iso-PPADS, pyridoxalphosphate-6-azophenyl-2’, 5’-disulfonic acid tetrasodium salt] | greater than 50 fold | > 1000 µM | >56 | 0.0015 ± 0.0001 s^−1 | 47 ± 8 M⁻¹ s⁻¹ | 40 ± 9 µM | slow on- and off-rates | 560 ± 55 µM |  | 
2 | O=C(Nc1cccc(C(=O)Nc2cc(C(=O)Nc3ccc(S(=O)(=O)O)c4cc(S(=O)(=O)O)cc(S(=O)(=O)O)c34)ccc2F)c1)Nc1cccc(C(=O)Nc2cc(C(=O)Nc3ccc(S(=O)(=O)O)c4cc(S(=O)(=O)O)cc(S(=O)(=O)O)c34)ccc2F)c1 [NF157] | more than 10 fold | 1.9 ± 0.1 µM | 11 | 0.0032 ± 0.0001 s^−1 | 7400 ± 600000 M⁻¹ s⁻¹ | 0.46 ± 0.05 µM | predominantly rapid kinetics | 120 ± 16 µM |  | 
3 | Cc1nc(/N=N/c2ccc(S(=O)(=O)O)cc2S(=O)(=O)O)c(COP(=O)(O)O)c(C=O)c1O [PPADS, pyridoxalphosphate-6-azophenyl-2’, 4’-disulfonic acid tetrasodium salt] | greater than 50 fold | > 1000 µM | >59 | 0.0013 ± 0.0001 s^−1 | 29 ± 8 M⁻¹ s⁻¹ | 57 ± 9 µM | slow association and dissociation kinetics; also recorded: slow on and off rates | 400 ± 14 µM |  | 
4 | Cc1ccc(C(=O)Nc2ccc(S(=O)(=O)O)c3cc(S(=O)(=O)O)cc(S(=O)(=O)O)c23)cc1NC(=O)c1cccc(NC(=O)Nc2cccc(C(=O)Nc3cc(C(=O)Nc4ccc(S(=O)(=O)O)c5cc(S(=O)(=O)O)cc(S(=O)(=O)O)c45)ccc3C)c2)c1 [suramin, suramin sodium salt] |  | 2.5 ± 0.1 µM | 3 | 0.16 ± 0.03 s^−1 | 290000 ± 7e+09 M⁻¹ s⁻¹ | 0.57 ± 0.06 µM | predominantly rapid kinetics | 400 ± 22 µM | 0.65 µM | dose-dependent decrease in replication products; also recorded: dose-dependent decrease in DNA replication
5 | O=C(Nc1cccc(C(=O)Nc2ccc(S(=O)(=O)O)c3cc(S(=O)(=O)O)cc(S(=O)(=O)O)c23)c1)Nc1cccc(C(=O)Nc2ccc(S(=O)(=O)O)c3cc(S(=O)(=O)O)cc(S(=O)(=O)O)c23)c1 [NF023] |  | 11 ± 1 µM | 6 | 1.6 ± 0.2 s^−1 | 360000 ± 2e+09 M⁻¹ s⁻¹ | 4.7 ± 0.8 µM | rapid association and dissociation |  |  | 
